{"source": "patent US20100222269A1", "about": "“IMPROVED DERIVATIVES OF AMYLIN” (priority 2007, published 2010)", "target": "T1, Amylin 3(a) receptor (human calcitonin receptor (CTa) with RAMP-3) (Homo sapiens, UniProt O60896+P30988)", "T1 construct": "expressed in transfected cells; host or cells: BHK570 (baby hamster kidney) cells, stably transfected, with CRE-luciferase reporter", "T1 sequence (O60896 24-148)": "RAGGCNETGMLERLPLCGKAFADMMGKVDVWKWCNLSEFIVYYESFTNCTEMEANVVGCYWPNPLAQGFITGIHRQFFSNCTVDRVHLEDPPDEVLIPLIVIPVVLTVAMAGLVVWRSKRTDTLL", "T1 sequence (P30988 25-474)": "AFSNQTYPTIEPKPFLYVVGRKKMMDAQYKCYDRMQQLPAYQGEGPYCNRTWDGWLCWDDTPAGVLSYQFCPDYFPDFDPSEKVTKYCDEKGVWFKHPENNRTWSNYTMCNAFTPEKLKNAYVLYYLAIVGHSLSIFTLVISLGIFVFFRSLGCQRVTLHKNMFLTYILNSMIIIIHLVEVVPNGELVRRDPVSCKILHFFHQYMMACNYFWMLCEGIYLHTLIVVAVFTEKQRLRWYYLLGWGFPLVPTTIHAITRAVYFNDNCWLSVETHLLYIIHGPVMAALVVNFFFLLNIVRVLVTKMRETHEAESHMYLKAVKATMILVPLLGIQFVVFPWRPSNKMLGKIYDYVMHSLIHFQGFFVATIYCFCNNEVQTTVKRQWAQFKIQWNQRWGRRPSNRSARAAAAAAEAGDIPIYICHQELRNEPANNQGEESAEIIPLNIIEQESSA", "assay": "Amylin luciferase assay (CRE-luciferase reporter in BHK Amylin 3(a)//CRE-luc cells)", "type": "cell-based", "settings": "BHK570 cells with human calcitonin receptor (CTa), RAMP-3 and CRE-luciferase reporter; 4 hours incubation; read-out: Potency luciferase assay", "method_in_brief": "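BHK570 cells stably expressing human calcitonin receptor (CTa), RAMP-3 and a CRE-luciferase reporter, about 20.000 cells/well, were exposed to standard or sample for 4 h at 37° C in phenol-red-free DMEM with 10% FBS and 10 mM Hepes pH 7,4. Luminescence was read after 30 min with LucLite at room temperature.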", "note": "Starred links: 1 amine or outer side, 2 acyl side, 3 side chain; linkers in the order of their positions; H or OH if unused. Positions of bridges follow the written chain, without caps; N, C: chain ends. Residues, ends and D or L forms follow the SMILES beside them. Groups on a side chain read outwards from the residue. *: point of attachment. C20 diacid = O=C(O)CCCCCCCCCCCCCCCCCCC(=O)*; C18 diacid = O=C(O)CCCCCCCCCCCCCCCCC(=O)*; γGlu = O=C(O)[C@H](CCC(=O)[*:2])N[*:1]; AEEA = NCCOCCOCC(=O)O", "data": [{"compound": "CC[C@H](C)[C@H](NC(=O)[C@H](CCCCNC(=O)COCCOCCNC(=O)COCCOCCNC(=O)CCCCCCCCCCCCCCCCCCC(=O)O)NC(=O)CNC(=O)[C@H](Cc1ccccc1)NC(=O)[C@H](CC(N)=O)NC(=O)[C@H](CC(N)=O)NC(=O)[C@H](CO)NC(=O)[C@H](CO)NC(=O)[C@H](Cc1c[nH]cn1)NC(=O)[C@@H](NC(=O)[C@H](CC(C)C)NC(=O)[C@H](Cc1ccccc1)NC(=O)[C@H](CC(N)=O)NC(=O)[C@H](C)NC(=O)[C@H](CC(C)C)NC(=O)[C@H](CCCNC(=N)N)NC(=O)[C@H](CCC(N)=O)NC(=O)[C@@H](NC(=O)[C@H](C)NC(=O)[C@@H]1CSSC[C@H](NC(=O)[C@@H](N)CCCCN)C(=O)N[C@@H](CC(N)=O)C(=O)N[C@@H]([C@@H](C)O)C(=O)N[C@@H](C)C(=O)N[C@@H]([C@@H](C)O)C(=O)N1)[C@@H](C)O)C(C)C)C(=O)N[C@@H](CC(C)C)C(=O)N1CCC[C@H]1C(=O)N1CCC[C@H]1C(=O)N[C@H](C(=O)N[C@@H](CC(N)=O)C(=O)N[C@H](C(=O)NCC(=O)N[C@@H](CO)C(=O)N[C@@H](CC(N)=O)C(=O)N[C@H](C(=O)N[C@@H](Cc1ccc(O)cc1)C(N)=O)[C@@H](C)O)C(C)C)[C@@H](C)O", "note": "[Example 10, N-epsilon25-(2-{2-[2-(2-{2-[2-(19-carboxynonadecanoylamino)ethoxy]ethoxy}acetylamino)ethoxy]ethoxy}acetyl)-[Lys25]-pramlintide (1-37)] (H-KCNTATCATQRLANFLVHSSNNFGK([AEEA-AEEA-C20 diacid])ILPPTNVGSNTY-NH2; disulfide 2-7; N-terminus and C-terminus assumed)", "values": [{"measurement": "EC50", "value": 0.06, "unit": "nM"}]}, {"compound": "CC[C@H](C)[C@H](NC(=O)[C@@H]1CCCN1C(=O)CNC(=O)[C@H](Cc1ccccc1)NC(=O)[C@H](CC(N)=O)NC(=O)[C@H](CC(N)=O)NC(=O)[C@H](CO)NC(=O)[C@H](CO)NC(=O)[C@H](CCCNC(=N)N)NC(=O)[C@H](C)NC(=O)[C@H](CC(C)C)NC(=O)[C@H](Cc1ccccc1)NC(=O)[C@H](CC(N)=O)NC(=O)[C@H](C)NC(=O)[C@H](CC(C)C)NC(=O)[C@H](CCCNC(=N)N)NC(=O)[C@H](CCC(N)=O)NC(=O)[C@@H](NC(=O)[C@H](C)NC(=O)[C@@H]1CSSC[C@H](NC(=O)[C@@H](N)CCCCNC(=O)CC[C@H](NC(=O)CCCCCCCCCCCCCCCCC(=O)O)C(=O)O)C(=O)NCC(=O)N[C@@H]([C@@H](C)O)C(=O)N[C@@H](C)C(=O)N[C@@H]([C@@H](C)O)C(=O)N1)[C@@H](C)O)C(=O)N[C@@H](CC(C)C)C(=O)N[C@@H](CO)C(=O)N1CCC[C@H]1C(=O)N[C@H](C(=O)N[C@@H](CC(N)=O)C(=O)N[C@H](C(=O)NCC(=O)N[C@@H](CO)C(=O)N[C@@H](CC(N)=O)C(=O)N[C@H](C(=O)N[C@@H](Cc1ccc(O)cc1)C(N)=O)[C@@H](C)O)C(C)C)[C@@H](C)O", "note": "[Example 23, N-epsilon1-[(S)-4-carboxy-4-(17-carboxyheptadecanoylamino)butyryl]-[Gly3,Ala17,Arg18,Ser28]-pramlintide (1-37)] (H-K([γGlu-C18 diacid])CGTATCATQRLANFLARSSNNFGPILSPTNVGSNTY-NH2; disulfide 2-7)", "values": [{"measurement": "EC50", "value": 0.07, "unit": "nM"}]}, {"compound": "CC[C@H](C)[C@H](NC(=O)[C@H](CCCCNC(=O)COCCOCCNC(=O)COCCOCCNC(=O)CC[C@H](NC(=O)CC[C@H](NC(=O)CC[C@H](NC(=O)CC[C@H](NC(=O)CCCCCCCCCCCCCCCCC(=O)O)C(=O)O)C(=O)O)C(=O)O)C(=O)O)NC(=O)CNC(=O)[C@H](Cc1ccccc1)NC(=O)[C@H](CC(N)=O)NC(=O)[C@H](CC(N)=O)NC(=O)[C@H](CO)NC(=O)[C@H](CO)NC(=O)[C@H](Cc1c[nH]cn1)NC(=O)[C@@H](NC(=O)[C@H](CC(C)C)NC(=O)[C@H](Cc1ccccc1)NC(=O)[C@H](CC(N)=O)NC(=O)[C@H](C)NC(=O)[C@H](CC(C)C)NC(=O)[C@H](CCCNC(=N)N)NC(=O)[C@H](CCC(N)=O)NC(=O)[C@@H](NC(=O)[C@H](C)NC(=O)[C@@H]1CSSC[C@H](NC(=O)[C@@H](N)CCCCN)C(=O)N[C@@H](CC(N)=O)C(=O)N[C@@H]([C@@H](C)O)C(=O)N[C@@H](C)C(=O)N[C@@H]([C@@H](C)O)C(=O)N1)[C@@H](C)O)C(C)C)C(=O)N[C@@H](CC(C)C)C(=O)N1CCC[C@H]1C(=O)N1CCC[C@H]1C(=O)N[C@H](C(=O)N[C@@H](CC(N)=O)C(=O)N[C@H](C(=O)NCC(=O)N[C@@H](CO)C(=O)N[C@@H](CC(N)=O)C(=O)N[C@H](C(=O)N[C@@H](Cc1ccc(O)cc1)C(N)=O)[C@@H](C)O)C(C)C)[C@@H](C)O", "note": "[Example 26, N-epsilon25-[2-(2-{2-[2-(2-{2-[(S)-4-carboxy-4-((S)-4-carboxy-4-{(S)-4-carboxy-4-[(S)-4-carboxy-4-(17-carboxyheptadecanoylamino)butyrylamino]butyrylamino}butyrylamino)butyrylamino]ethoxy}ethoxy)acetylamino]ethoxy}ethoxy)acetyl]-[Lys25]-pramlintide (1-37)] (H-KCNTATCATQRLANFLVHSSNNFGK([AEEA-AEEA-γGlu-γGlu-γGlu-γGlu-C18 diacid])ILPPTNVGSNTY-NH2; disulfide 2-7; N-terminus and C-terminus assumed)", "values": [{"measurement": "EC50", "value": 0.3, "unit": "nM"}]}, {"compound": "CC(C)C[C@H](NC(=O)[C@H](CC(N)=O)NC(=O)[C@H](CC(N)=O)NC(=O)[C@H](CO)NC(=O)[C@H](CO)NC(=O)[C@H](CCCNC(=N)N)NC(=O)[C@@H](NC(=O)[C@H](CC(C)C)NC(=O)[C@H](Cc1ccccc1)NC(=O)[C@H](CC(N)=O)NC(=O)[C@H](C)NC(=O)[C@H](CC(C)C)NC(=O)[C@H](CCCNC(=N)N)NC(=O)[C@H](CCC(N)=O)NC(=O)[C@@H](NC(=O)[C@H](C)NC(=O)[C@@H]1CSSC[C@H](NC(=O)CC[C@H](NC(=O)CCCCCCCCCCCCCCCCC(=O)O)C(=O)O)C(=O)N[C@@H](CC(N)=O)C(=O)N[C@@H]([C@@H](C)O)C(=O)N[C@@H](C)C(=O)N[C@@H]([C@@H](C)O)C(=O)N1)[C@@H](C)O)C(C)C)C(=O)NCC(=O)N1CCC[C@H]1C(=O)N[C@H](C(=O)N[C@@H](CC(C)C)C(=O)N1CCC[C@H]1C(=O)N1CCC[C@H]1C(=O)N[C@H](C(=O)N[C@@H](CC(N)=O)C(=O)N[C@H](C(=O)NCC(=O)N[C@@H](CO)C(=O)N[C@@H](CC(N)=O)C(=O)N[C@H](C(=O)N[C@@H](Cc1ccc(O)cc1)C(N)=O)[C@@H](C)O)C(C)C)[C@@H](C)O)C(C)C", "note": "[Example 16, N-alpha-[(S)-4-carboxy-4-(17-carboxyheptadecanoylamino)butyryl]-[Arg18,Leu23,Val26]-pramlintide (2-37)]", "values": [{"measurement": "EC50", "value": 0.03, "unit": "nM"}]}, {"compound": "CC[C@H](C)[C@H](NC(=O)[C@@H]1CCCN1C(=O)CNC(=O)[C@H](Cc1ccccc1)NC(=O)[C@H](CC(N)=O)NC(=O)[C@H](CC(N)=O)NC(=O)[C@H](CO)NC(=O)[C@H](CO)NC(=O)[C@H](Cc1c[nH]cn1)NC(=O)[C@@H](NC(=O)[C@H](CC(C)C)NC(=O)[C@H](Cc1ccccc1)NC(=O)[C@H](CC(N)=O)NC(=O)[C@H](C)NC(=O)[C@H](CC(C)C)NC(=O)[C@H](CCCNC(=N)N)NC(=O)[C@H](CCC(N)=O)NC(=O)[C@@H](NC(=O)[C@H](C)NC(=O)[C@@H]1CSSC[C@H](NC(=O)[C@H](CCCCN)NC(=O)[C@H](CCCCN)NC(=O)CC[C@H](NC(=O)CCCCCCCCCCCCCCCCCCC(=O)O)C(=O)O)C(=O)N[C@@H](CC(N)=O)C(=O)N[C@@H]([C@@H](C)O)C(=O)N[C@@H](C)C(=O)N[C@@H]([C@@H](C)O)C(=O)N1)[C@@H](C)O)C(C)C)C(=O)N[C@@H](CC(C)C)C(=O)N1CCC[C@H]1C(=O)N1CCC[C@H]1C(=O)N[C@H](C(=O)N[C@@H](CC(N)=O)C(=O)N[C@H](C(=O)NCC(=O)N[C@@H](CO)C(=O)N[C@@H](CC(N)=O)C(=O)N[C@H](C(=O)N[C@@H](Cc1ccc(O)cc1)C(N)=O)[C@@H](C)O)C(C)C)[C@@H](C)O", "note": "[Example 48, N-alpha-[(S)-4-carboxy-4-(19-carboxynonadecanoylamino)butyryl]-Lys-pramlintide (1-37)] ({C20 diacid-γGlu}-KKCNTATCATQRLANFLVHSSNNFGPILPPTNVGSNTY-NH2; disulfide 3-8)", "values": [{"measurement": "EC50", "value": 0.1, "unit": "nM"}]}, {"compound": "CC[C@H](C)[C@H](NC(=O)[C@@H]1CCCN1C(=O)CNC(=O)[C@H](Cc1ccccc1)NC(=O)[C@H](CC(N)=O)NC(=O)[C@H](CC(N)=O)NC(=O)[C@H](CO)NC(=O)[C@H](CO)NC(=O)[C@H](Cc1c[nH]cn1)NC(=O)[C@@H](NC(=O)[C@H](CC(C)C)NC(=O)[C@H](Cc1ccccc1)NC(=O)[C@H](CC(N)=O)NC(=O)[C@H](C)NC(=O)[C@H](CC(C)C)NC(=O)[C@H](CCCNC(=N)N)NC(=O)[C@H](CCC(N)=O)NC(=O)[C@@H](NC(=O)[C@H](C)NC(=O)[C@@H]1CSSC[C@H](NC(=O)[C@@H](N)CCCCN)C(=O)N[C@@H](CC(N)=O)C(=O)N[C@@H]([C@@H](C)O)C(=O)N[C@@H](C)C(=O)N[C@@H]([C@@H](C)O)C(=O)N1)[C@@H](C)O)C(C)C)C(=O)N[C@@H](CC(C)C)C(=O)N1CCC[C@H]1C(=O)N[C@@H](CCCCNC(=O)COCCOCCNC(=O)COCCOCCNC(=O)CCCCCCCCCCCCCCCCCCC(=O)O)C(=O)N[C@H](C(=O)N[C@@H](CC(N)=O)C(=O)N[C@H](C(=O)NCC(=O)N[C@@H](CO)C(=O)N[C@@H](CC(N)=O)C(=O)N[C@H](C(=O)N[C@@H](Cc1ccc(O)cc1)C(N)=O)[C@@H](C)O)C(C)C)[C@@H](C)O", "note": "[Example 6, N-epsilon29-(2-{2-[2-(2-{2-[2-(19-carboxynonadecanoylamino)ethoxy]ethoxy}acetylamino)ethoxy]ethoxy}acetyl)-[Lys29]-pramlintide (1-37)] (H-KCNTATCATQRLANFLVHSSNNFGPILPK([AEEA-AEEA-C20 diacid])TNVGSNTY-NH2; disulfide 2-7; N-terminus and C-terminus assumed)", "values": [{"measurement": "EC50", "value": 0.2, "unit": "nM"}]}]}
